This note sets out measurements from the supplement of paper PMC11061612.

Test [1] relates to JHH-6 (Hepatocellular Carcinoma). As to the kind of experiment: combination Emax (second highest fraction inhibited in the dose matrix, 72 h); higher = more inhibition; extreme values may be limits of the assay. Put shortly: (§1)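 After 24 hours at 37°C and 5% CO2 in 1536-well plates, cells in DMEM/F12 or RPMI plus 10% FBS received two-drug dose matrices for 72 hours. Viability came from CellTiter-Glo 2.0 luminescence and was scaled as inhibition, anchored at 0 by vehicle wells and at 1 by blank wells. Combination Emax is taken as the second-highest inhibition in the matrix, and Bliss excess as the observed combination effect less EA + EB − EA·EB, with EA and EB the single-agent effects.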

The test system of test [2] is SNU-61 (Colorectal Carcinoma). The test is described as above. An outline of the steps: as §1
In another test the test system is D-392MG (Glioblastoma). The test is described as above. An outline of the steps: as §1
Test [3] concerns U-118-MG (Low Grade Glioma). The test is described as above. An outline of the steps: as §1
Test [4] has as its system KG-1 (Acute Myeloid Leukemia). The test is described as above. An outline of the steps:
as §1

Test [5] deals with PA-TU-8902 (Pancreatic Carcinoma). The description is as above. Put shortly: as §1
A further test has as its system CS1 (Chondrosarcoma). Described as above. An outline of the steps: as §1
In test [6] the test system is MEG-01 (Chronic Myelogenous Leukemia). The description is as above. Put shortly: as §1
For test [7], the system named is HOP-92 (Non-Small Cell Lung Carcinoma). The description is as above. An outline of the steps:
as §1

Test [8] relates to HCC1143 (Breast Carcinoma). Described as above. An outline of the steps: as §1
The subject of a further test is A172 (Glioblastoma). The test is described as above. Put shortly: as §1
The test system of test [9] is GDM-1 (Acute Myeloid Leukemia). The test is described as above. An outline of the steps: as §1
Test [10] relates to TC-YIK (Other Solid Carcinomas). The description is as above. Put shortly:
as §1

The test system of test [11] is FU-OV-1 (Ovarian Carcinoma). The test is described as above. An outline of the steps:
as §1

The subject of test [12] is TC-YIK (Other Solid Carcinomas). Description: Bliss excess, mean over the matrix (fraction); higher = more synergy. Put shortly:
as §1

Test [13] concerns FU-OV-1 (Ovarian Carcinoma). The test is described as above. Put shortly:
as §1

Consider `COc1nnc2ccc(N3CCC(c4ccc(OCCN5CCN(C)C(=O)[C@H]5C)cc4)CC3)nn12` [AZD5153] + Cn1cnc2c(F)c(Nc3ccc(Br)cc3Cl)c(C(=O)NOCCO)cc21 [Selumetinib] (first compound max 1 µM, 7x7, partner max 10 µM), for which the “combination Emax” value in test [1] amounted to 0.507; in test [2], 0.69; in the test on D-392MG (Glioblastoma), 0.569; in test [3] it was 0.362; in test [4], 0.817; in [5], 0.527. Moreover, the “combination Emax” value came out at 0.469 with CS1 (Chondrosarcoma); 0.988 in test [6]; 0.556 in test [7]; 0.513 in [8]; 0.511 in the test with A172 (Glioblastoma); 0.823 in test [9]. Moreover, the “combination Emax” value was 0.93 in test [10] and 0.735 in test [11]. Further, the Bliss excess worked out at 0.0028 in [12] and 0.0236 in [13].
Regarding `NC1(C(=O)N[C@@H](CCO)c2ccc(Cl)cc2)CCN(c2ncnc3[nH]ccc23)CC1` [Capivasertib] + CCN(CCO)CCCOc1ccc2c(Nc3cc(CC(=O)Nc4cccc(F)c4)[nH]n3)ncnc2c1 [AZD2811] (first compound max 10 µM, 7x7, partner max 1 µM), the “combination Emax” value in test [1] is 0.4; in [2], 0.242; in the test on D-392MG (Glioblastoma), 0.332; in test [3], 0.603; in test [4] it was 0.458; in test [5], 0.348. Besides, the “combination Emax” value worked out at 0.417 in the test on CS1 (Chondrosarcoma); 0.638 in [6]; 0.458 in test [7]; 0.287 in test [8]; 0.52 in the test with A172 (Glioblastoma); 0.837 in test [9]. The results for the “combination Emax” value in test [10] and in [11] were 0.95 and 0.268, respectively. For the same compound, the Bliss excess in test [12] was -0.0415; in [13], -0.0235.
As to `COc1nnc2ccc(N3CCC(c4ccc(OCCN5CCN(C)C(=O)[C@H]5C)cc4)CC3)nn12` [AZD5153] + C=CCn1c(=O)c2cnc(Nc3ccc(N4CCN(C)CC4)cc3)nc2n1-c1cccc(C(C)(C)O)n1 [AZD1775] (first compound max 1 µM, partner max 1 µM), the “combination Emax” value in [1] was 0.53; in [2], 0.601; in the test with D-392MG (Glioblastoma) it was 0.497; in test [3], 0.467; in [4] it was 0.861; in test [5], 0.502. Moreover, the “combination Emax” value in the test with CS1 (Chondrosarcoma) came to 0.553; in [6], 0.945; in [7], 0.406; in test [8] it was 0.677; in the test with A172 (Glioblastoma), 0.543; in test [9], 0.961. The “combination Emax” value in test [10] worked out at 0.935; in test [11], 0.631. Also, the Bliss excess in [12] is -0.0712; in test [13], 0.0138.
In the case of `NC1(C(=O)N[C@@H](CCO)c2ccc(Cl)cc2)CCN(c2ncnc3[nH]ccc23)CC1` [Capivasertib] + COc1nnc2ccc(N3CCC(c4ccc(OCCN5CCN(C)C(=O)[C@H]5C)cc4)CC3)nn12 [AZD5153] (first compound max 10 µM, 7x7, partner max 1 µM), the “combination Emax” value in test [1] was 0.645; in test [2], 0.303; in the test with D-392MG (Glioblastoma), 0.512; in [3], 0.658; in test [4] it was 0.852; in test [5] it was 0.326. Besides, the “combination Emax” value with CS1 (Chondrosarcoma) was determined as 0.455; in test [6], 0.877; in [7], 0.405; in [8], 0.325; in the test on A172 (Glioblastoma), 0.472; in test [9], 0.79. Also, the results for the “combination Emax” value in test [10] and in test [11] were 0.962 and 0.575, respectively. Besides, the values for the Bliss excess in [12] and in test [13] were -0.0723 and -0.0492, respectively.
Consider `C[C@@H](c1ccc2nccn2c1)n1nnc2ncc(-c3cnn(C)c3)nc21` [Savolitinib] + Cc1c2c(nn1C)CSCc1cc(n(C)n1)CSc1cc(c3ccccc3c1)OCCCc1c(C(=O)O)n(C)c3c-2c(Cl)ccc13 [AZD5991] (first compound max 1 µM, 7x7, partner max 1 µM), for which the “combination Emax” value turned out to be 0.103 in test [1]; 0.151 in [2]; 0.31 in the test on D-392MG (Glioblastoma); 0.258 in test [3]; 0.711 in [4]; 0.184 in test [5]. The “combination Emax” value was found to be 0.266 in the test with CS1 (Chondrosarcoma); 0.148 in [6]; 0.197 in test [7]; 0.402 in [8]; 0.112 in the test with A172 (Glioblastoma); 0.208 in test [9]. Also, the “combination Emax” value turned out to be 0.193 in test [10] and 0.204 in test [11]. Moreover, the results for the Bliss excess in test [12] and in test [13] were 0.003 and -0.056, respectively.
As for `NC1(C(=O)N[C@@H](CCO)c2ccc(Cl)cc2)CCN(c2ncnc3[nH]ccc23)CC1` [Capivasertib] + CC(=O)c1c(C)c2cnc(Nc3ccc(N4CCNCC4)cn3)nc2n(C2CCCC2)c1=O [Palbociclib] (first compound max 10 µM, 7x7, partner max 10 µM), the “combination Emax” value in test [1] stood at 0.501; in test [2] it was 0.168; in the test on D-392MG (Glioblastoma) it was 0.436; in test [3] it was 0.676; in test [4] it was 0.398; in test [5], 0.409. Also, the “combination Emax” value in the test with CS1 (Chondrosarcoma) worked out at 0.442; in [6], 0.468; in test [7] it was 0.466; in test [8] it was 0.498; in the test on A172 (Glioblastoma), 0.671; in [9], 0.623. Moreover, the “combination Emax” value is 0.44 in [10] and 0.236 in [11]. The Bliss excess is -0.048 in test [12] and -0.0388 in [13].
